Data set [1] is described as follows: Thermodynamic solubility, UV–vis of saturated solutions. The procedure:
The concentration of the compounds was determined by UV–vis spectrophotometry using stock solutions of the compounds with a known concentration dissolved in pure DMSO and 50% (v/v) DMSO/buffered aqueous solution for the calibration.

The test system of data set [2] is HCT-116 isogenic p53-knock-out subline. Nature of the data set: MTT assay, 96 h. It counts as cell-based, human. Particulars: read-out: IC50 HCT-116p53ko, mean. The text has this:
The oncosuppressor protein p53 controls the cellular response to DNA strand breaks induced by cytotoxic drugs or by radiation.[58] The p53 protein may enhance cell chemosensitivity by promoting apoptosis via different mechanisms including activation of proapoptotic genes such as bax and repression of antiapoptotic genes such as bcl-2 or in contrast increase chemoresistance by promoting p21-mediated and p21-independent growth arrest and DNA repair and by activation of antiapoptotic genes such as bcl-x. There is strong evidence that the modulation of drug sensitivity by p53 may be both drug- and cell type-specific.[59] […] Accordingly, essential differences in chemosensitivity were observed between cells with wild-type p53 gene and cells with knocked out p53 gene by homologous recombination.[60]
Human colonic adenocarcinoma cell lines Colo 205 doxorubicin-sensitive (ATCC-CCL-222) and Colo 320/MDR-LRP multidrug resistant over-expressing ABCB1 (MDR1)-LRP (ATCC-CCL-220.1) were purchased from LGC Promochem, Teddington, UK. The cells were cultured in an RPMI 1640 medium supplemented with 10% heat-inactivated fetal bovine serum, 2 mM L-glutamine, 1 mM Na-pyruvate, and 10 mM HEPES. The semi-adherent human colon cancer cells were detached with Trypsin-Versene (EDTA) solution for 5 min at 37 °C. An MRC-5 human embryonal lung fibroblast cell line (ATCC CCL-171) was purchased from LGC Promochem, Teddington, UK. The cells were cultured in Eagle’s minimal essential medium (EMEM, containing 4.5 g L^–1 glucose) supplemented with a non-essential amino acid mixture, a selection of vitamins, and 10% heat-inactivated fetal bovine serum. The HCT-116 colon carcinoma cells and isogenic p53-knock-out subline were a gift of Prof. Bert Vogelstein from The Johns Hopkins Oncology Center. Cells were cultured in McCoy’s 5A medium supplemented with 10% heat-inactivated fetal bovine serum and 4 mM L-glutamine. All cell lines were incubated at 37 °C, in a 5% CO2, 95% air atmosphere.
MRC-5 non-cancerous human embryonic lung fibroblast and human colonic adeno-carcinoma cell lines (doxorubicin-sensitive Colo 205 and multidrug resistant Colo 320 colonic adenocarcinoma cells) were used to determine the effect of compounds on cell growth. The effects of increasing concentrations of compounds on cell growth were tested in 96-well flat-bottomed microtiter plates. The compounds were dissolved in DMSO and stock solutions of 10 mM were prepared. These were further diluted in the appropriate cell culture medium by twofold serial dilution starting from 100 or 10 μM for the compounds. The adherent human embryonal lung fibroblast cells were cultured in 96-well flat-bottomed microtiter plates using EMEM supplemented with 10% heat-inactivated fetal bovine serum. The density of the cells was adjusted to 1 × 10^4 cells in 100 μL per well, the cells were seeded for 24 h at 37 °C, 5% CO2, then the medium was removed from the plates containing the cells, and the dilutions of compounds previously made in a separate plate were added to the cells in 200 μL. In the case of the colonic adenocarcinoma cells, the twofold serial dilutions of compounds were prepared in 100 μL of RPMI 1640, horizontally. The semi-adherent colonic adenocarcinoma cells were treated with Trypsin-Versene (EDTA) solution. They were adjusted to a density of 1 × 10^4 cells in 100 μL of RPMI 1640 medium and were added to each well, with the exception of the medium control wells. […]

A further data set concerns the target BTK (Homo sapiens, UniProt Q06187). Nature of the data set: Kinase panel screen. It counts as biochemical. Particulars: 10 µM compound. The text has this:
(§1) Figure 7 (see also Table S4) summarizes the results of this assay as a histogram plotting the percentage of the remaining enzyme activity (x-axis) as a function of added lead compound (HL^8: blue trace, 8: red trace) for each of the 50 enzymes assayed (y-axis). […] Thus, the coordination to copper(II) completely changes the kinase inhibition profile of HL^8.
(§2) Figure 7 Screening of HL^8 and 8 against 50 enzymes: histogram with % remaining activity on the x-axis plotted against the compound identifier (blue trace: HL^8 and red trace: 8) and enzyme identifier on the […]. The screen was carried out at a compound concentration of 10 μM, an enzyme concentration of 50 nM, and an ATP concentration of 100 μM.
(§3) All kinase assays were carried out using Multidrop 384’s at room temperature in a total assay volume of 25.5 μL. To plates containing 0.5 μL of HL^8 and 8, DMSO control or acid blank […], 15 μL of an enzyme mix containing enzyme […], and excess peptide/protein substrate in buffer was added. Compounds were pre-incubated in the presence of the enzyme and peptide/protein substrate for 5 min before initiation of the reaction by addition of 10 μL of ATP (final concentration selected for each kinase at 5, 20, or 50 μM). Assays were carried out for 30 min at room temperature before termination by the addition of 5 μL of orthophosphoric acid. The assay plates were then harvested onto P81 Unifilter Plates by a PerkinElmer Harvester and air dried. The dry Unifilter plates were then sealed on the addition of MicroScint O and were counted in PerkinElmer Topcount scintillation counters.

The next data set concerns the target CAMKKb (Homo sapiens, UniProt Q96RR4). Nature of the data set: Kinase panel screen. Particulars: 10 µM compound. Type of data set: biochemical.
Description: as §1, §2, §3

The target in a further data set is CK2 (Homo sapiens, UniProt P68400). Nature of the data set: Kinase panel screen. Type of data set: biochemical. Particulars: 10 µM compound.
Sequence of CK2 (P68400 whole entry): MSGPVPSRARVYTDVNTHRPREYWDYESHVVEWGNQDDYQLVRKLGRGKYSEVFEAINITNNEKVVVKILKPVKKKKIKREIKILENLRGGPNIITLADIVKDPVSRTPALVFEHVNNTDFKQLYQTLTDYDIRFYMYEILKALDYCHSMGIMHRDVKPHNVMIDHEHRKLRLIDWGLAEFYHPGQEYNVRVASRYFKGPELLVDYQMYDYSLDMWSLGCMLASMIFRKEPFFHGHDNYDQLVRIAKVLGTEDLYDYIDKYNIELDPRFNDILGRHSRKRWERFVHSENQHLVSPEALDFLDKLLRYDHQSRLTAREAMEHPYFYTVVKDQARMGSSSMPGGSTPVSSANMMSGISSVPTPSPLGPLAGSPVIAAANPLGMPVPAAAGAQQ
Description: as §1, §2, §3

The next data set deals with HER4 (Homo sapiens, UniProt Q15303). Nature of the data set: Kinase panel screen. Type of data set: biochemical. Conditions: 10 µM compound.
Sequence of HER4 (Q15303 26-1308): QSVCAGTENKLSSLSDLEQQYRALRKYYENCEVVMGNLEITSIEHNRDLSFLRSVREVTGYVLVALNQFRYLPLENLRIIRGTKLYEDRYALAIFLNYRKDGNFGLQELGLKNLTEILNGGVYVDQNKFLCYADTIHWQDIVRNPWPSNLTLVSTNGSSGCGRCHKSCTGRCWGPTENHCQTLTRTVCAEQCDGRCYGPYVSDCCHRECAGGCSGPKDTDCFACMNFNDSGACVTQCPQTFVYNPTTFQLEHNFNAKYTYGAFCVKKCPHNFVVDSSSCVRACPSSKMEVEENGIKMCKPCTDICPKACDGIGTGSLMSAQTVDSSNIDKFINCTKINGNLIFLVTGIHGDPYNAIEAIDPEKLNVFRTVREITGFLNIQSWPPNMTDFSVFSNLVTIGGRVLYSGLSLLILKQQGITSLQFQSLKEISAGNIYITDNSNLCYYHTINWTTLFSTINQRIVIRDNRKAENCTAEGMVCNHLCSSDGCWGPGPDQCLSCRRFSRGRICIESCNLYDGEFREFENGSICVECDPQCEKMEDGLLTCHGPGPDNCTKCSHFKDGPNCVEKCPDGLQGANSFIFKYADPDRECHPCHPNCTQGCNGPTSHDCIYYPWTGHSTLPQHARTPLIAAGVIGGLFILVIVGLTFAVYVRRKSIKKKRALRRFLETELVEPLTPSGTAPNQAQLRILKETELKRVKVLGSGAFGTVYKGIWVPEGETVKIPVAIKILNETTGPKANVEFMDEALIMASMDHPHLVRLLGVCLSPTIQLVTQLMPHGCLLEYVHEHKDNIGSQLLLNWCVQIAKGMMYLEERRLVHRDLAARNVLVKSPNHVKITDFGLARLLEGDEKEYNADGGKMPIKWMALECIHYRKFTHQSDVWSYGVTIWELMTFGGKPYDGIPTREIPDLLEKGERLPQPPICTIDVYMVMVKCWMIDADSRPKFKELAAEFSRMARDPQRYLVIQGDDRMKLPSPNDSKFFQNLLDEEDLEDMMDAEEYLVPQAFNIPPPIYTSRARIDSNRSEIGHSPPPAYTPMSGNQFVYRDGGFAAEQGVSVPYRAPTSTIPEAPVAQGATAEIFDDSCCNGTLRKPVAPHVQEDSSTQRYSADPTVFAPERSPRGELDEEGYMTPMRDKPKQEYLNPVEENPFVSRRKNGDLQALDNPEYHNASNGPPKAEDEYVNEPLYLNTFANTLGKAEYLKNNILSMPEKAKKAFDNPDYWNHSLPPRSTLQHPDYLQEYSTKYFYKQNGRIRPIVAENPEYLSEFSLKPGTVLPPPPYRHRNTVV
Description: as §1, §2, §3

The target of the next data set is IRAK4 (Homo sapiens, UniProt Q9NWZ3). Nature of the data set: Kinase panel screen. It counts as biochemical. Particulars: 10 µM compound.
Sequence of IRAK4 (Q9NWZ3 whole entry): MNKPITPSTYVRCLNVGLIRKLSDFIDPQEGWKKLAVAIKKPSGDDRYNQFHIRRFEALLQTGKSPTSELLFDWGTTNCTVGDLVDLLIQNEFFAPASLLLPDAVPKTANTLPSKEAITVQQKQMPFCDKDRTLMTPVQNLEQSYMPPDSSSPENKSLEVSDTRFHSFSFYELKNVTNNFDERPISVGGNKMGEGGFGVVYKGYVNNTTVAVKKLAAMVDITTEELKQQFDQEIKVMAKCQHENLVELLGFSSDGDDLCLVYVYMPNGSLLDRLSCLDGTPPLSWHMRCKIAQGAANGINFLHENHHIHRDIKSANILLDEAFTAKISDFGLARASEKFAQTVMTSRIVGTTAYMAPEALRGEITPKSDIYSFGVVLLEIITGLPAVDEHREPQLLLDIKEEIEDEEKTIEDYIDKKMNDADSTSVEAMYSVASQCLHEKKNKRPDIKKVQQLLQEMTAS
Description: as §1, §2, §3

The target in another data set is PAK4 (Homo sapiens, UniProt O96013). Nature of the data set: Kinase panel screen. It counts as biochemical. Conditions: 10 µM compound.
Sequence of PAK4 (O96013 whole entry): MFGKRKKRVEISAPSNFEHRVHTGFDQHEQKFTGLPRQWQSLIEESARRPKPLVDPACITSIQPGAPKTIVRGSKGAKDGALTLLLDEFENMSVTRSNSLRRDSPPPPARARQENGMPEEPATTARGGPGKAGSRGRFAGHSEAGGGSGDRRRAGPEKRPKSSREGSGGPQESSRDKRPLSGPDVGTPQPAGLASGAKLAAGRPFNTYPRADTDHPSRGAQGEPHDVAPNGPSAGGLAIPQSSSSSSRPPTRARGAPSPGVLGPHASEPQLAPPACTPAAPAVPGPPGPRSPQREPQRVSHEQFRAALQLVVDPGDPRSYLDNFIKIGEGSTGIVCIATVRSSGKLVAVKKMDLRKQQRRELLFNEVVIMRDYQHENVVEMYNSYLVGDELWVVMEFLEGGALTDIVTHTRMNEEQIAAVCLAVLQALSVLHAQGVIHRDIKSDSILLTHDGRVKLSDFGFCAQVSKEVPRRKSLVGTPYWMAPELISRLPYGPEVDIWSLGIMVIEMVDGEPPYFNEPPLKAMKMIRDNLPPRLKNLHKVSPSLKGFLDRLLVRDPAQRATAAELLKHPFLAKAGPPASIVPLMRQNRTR
Description: as §1, §2, §3

For another data set, the target named is PKCa (Homo sapiens, UniProt P17252). Nature of the data set: Kinase panel screen. It counts as biochemical. Particulars: 10 µM compound.
Description: as §1, §2, §3

For another data set, the target named is PLK1 (Homo sapiens, UniProt P53350). Nature of the data set: Kinase panel screen. Particulars: 10 µM compound. It counts as biochemical.
Sequence of PLK1 (P53350 whole entry): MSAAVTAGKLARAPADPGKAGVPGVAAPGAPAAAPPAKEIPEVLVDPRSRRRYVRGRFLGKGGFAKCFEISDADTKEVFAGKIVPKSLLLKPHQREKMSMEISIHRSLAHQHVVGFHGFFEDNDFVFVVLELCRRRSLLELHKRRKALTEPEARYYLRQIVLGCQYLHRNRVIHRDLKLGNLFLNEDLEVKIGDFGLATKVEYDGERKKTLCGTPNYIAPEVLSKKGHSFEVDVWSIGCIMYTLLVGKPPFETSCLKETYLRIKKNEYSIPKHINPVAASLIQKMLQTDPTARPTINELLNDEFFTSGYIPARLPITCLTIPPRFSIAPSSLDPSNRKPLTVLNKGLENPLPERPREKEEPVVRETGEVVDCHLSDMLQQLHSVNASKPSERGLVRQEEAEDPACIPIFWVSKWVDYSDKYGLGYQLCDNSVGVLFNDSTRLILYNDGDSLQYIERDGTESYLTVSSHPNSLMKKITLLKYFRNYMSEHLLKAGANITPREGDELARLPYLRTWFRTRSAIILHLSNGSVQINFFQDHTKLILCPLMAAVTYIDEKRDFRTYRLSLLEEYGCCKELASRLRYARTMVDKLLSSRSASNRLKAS
Description: as §1, §2, §3

For the next data set, the target named is TAK1 (Homo sapiens, UniProt O43318). Nature of the data set: Kinase panel screen. Conditions: 10 µM compound. It counts as biochemical.
Sequence of TAK1 (O43318 1-303 limits assumed): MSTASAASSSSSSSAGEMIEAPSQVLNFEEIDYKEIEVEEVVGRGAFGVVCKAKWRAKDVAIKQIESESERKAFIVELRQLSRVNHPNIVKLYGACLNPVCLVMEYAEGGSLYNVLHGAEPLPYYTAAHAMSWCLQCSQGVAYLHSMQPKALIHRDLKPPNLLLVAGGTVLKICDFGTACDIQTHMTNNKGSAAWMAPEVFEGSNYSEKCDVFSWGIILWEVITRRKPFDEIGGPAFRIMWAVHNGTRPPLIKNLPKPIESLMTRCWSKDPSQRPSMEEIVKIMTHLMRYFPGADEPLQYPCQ
Description: as §1, §2, §3

The next data set concerns AMPK (hum). Nature of the data set: Kinase panel screen. Type of data set: biochemical, human. Conditions: 10 µM compound.
Description: as §1, §2
as §3, with “Assays were carried out for 30 min at room temperature before termination by the addition of 5 μL of orthophosphoric acid. The assay plates were then harvested onto P81 Unifilter Plates by a PerkinElmer Harvester and air dried.” left out

Sequence of CAMKKb (Q96RR4 whole entry): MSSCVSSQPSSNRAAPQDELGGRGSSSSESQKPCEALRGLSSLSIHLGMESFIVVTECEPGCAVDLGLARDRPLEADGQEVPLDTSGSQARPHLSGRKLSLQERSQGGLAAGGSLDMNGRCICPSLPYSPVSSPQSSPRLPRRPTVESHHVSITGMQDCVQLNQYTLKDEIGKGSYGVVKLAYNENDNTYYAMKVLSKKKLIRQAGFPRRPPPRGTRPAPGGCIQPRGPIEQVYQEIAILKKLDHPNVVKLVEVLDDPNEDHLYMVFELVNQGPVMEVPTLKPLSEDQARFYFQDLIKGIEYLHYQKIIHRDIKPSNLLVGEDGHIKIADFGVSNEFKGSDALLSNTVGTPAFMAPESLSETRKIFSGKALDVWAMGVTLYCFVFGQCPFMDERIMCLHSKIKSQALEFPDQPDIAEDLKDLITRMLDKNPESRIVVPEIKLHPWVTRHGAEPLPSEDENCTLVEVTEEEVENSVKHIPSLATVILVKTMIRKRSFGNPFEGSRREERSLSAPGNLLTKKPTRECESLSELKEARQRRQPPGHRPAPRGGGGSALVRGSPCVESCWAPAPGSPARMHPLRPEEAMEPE

As usually defined, the IC50 is the point on the concentration scale where inhibition reaches its midpoint. As for `CC(=NNc1nc2ccccc2c2c1[nH]c1ccc(Br)cc12)c1ccc(CN2CCOCC2)cn1.[Cl][Cu][Cl]` [compound 8, CuCl2(HL^8)·H2O], the “Thermodynamic solubility (S)” value came out at 34.3 µM in data set [1] (pH 5) and 10.4 µM in data set [1] (pH 7.4). Besides, the IC50 in data set [2] worked out at 41 nM. Besides, the “% remaining activity” value turned out to be 61% at BTK; 98% at CAMKKb; 79% at CK2; 71% at HER4; 105% at IRAK4; 144% at PAK4. Moreover, the “% remaining activity” value at PKCa is 80%; at PLK1 it was 90%; at TAK1, 120%; with AMPK (hum), 91%.

(Values after article PMC8842277, “Highly Antiproliferative Latonduine and Indolo[2,3-c]quinoline Derivatives: Complex Formation with Copper(II) Markedly Changes the Kinase Inhibitory Profile” (Journal of Medicinal Chemistry, 2022).)
